The NIST ThermoML archive (doi:10.1016/j.jct.2016.02.016)

Key:
[1] = xn = mol fraction of the nth substance listed; details: 100 kPa, Liquid; for speed of sound: Frequency=3 MHz, Sing-around technique in a fixed-path interferometer; for mass density: Vibrating tube method
[2] = refractive index (Na D-line) (dimensionless); xn = mol fraction of the nth substance listed; details: 100 kPa, Liquid, Standard Abbe refractometry

CCCC(C)=O [pentan-2-one] + CN(C)C=O
Details | mass density, [1] [kg/m3] | refractive index, [2] | speed of sound, [1] [m/s]
293.15 K, x2 = 0 | 806.83 | 1.39026 | 1232.4
293.15 K, x2 = 0.056 | – | 1.39208 | –
293.15 K, x2 = 0.1141 | 819.616 | 1.39408 | 1254.3
293.15 K, x2 = 0.1516 | 823.961 | – | 1261.7
293.15 K, x2 = 0.1531 | – | 1.39541 | –
293.15 K, x2 = 0.2063 | 830.491 | 1.39735 | 1273
293.15 K, x2 = 0.2588 | 836.933 | 1.39918 | 1284
293.15 K, x2 = 0.3089 | 843.115 | 1.40106 | 1294.7
293.15 K, x2 = 0.3594 | 849.625 | 1.40295 | 1303.2
293.15 K, x2 = 0.4006 | 855.077 | 1.40453 | 1315.3
293.15 K, x2 = 0.4488 | 861.489 | 1.40643 | 1326.3
293.15 K, x2 = 0.4999 | 868.584 | 1.40845 | 1338.5
293.15 K, x2 = 0.5466 | 875.212 | 1.41036 | 1350
293.15 K, x2 = 0.5976 | – | 1.41245 | –
293.15 K, x2 = 0.5987 | 882.775 | – | 1363.1
293.15 K, x2 = 0.6581 | 891.66 | 1.41495 | 1378.4
293.15 K, x2 = 0.6992 | – | 1.41668 | –
293.15 K, x2 = 0.7528 | 906.494 | 1.41906 | 1404.2
293.15 K, x2 = 0.8029 | 914.576 | 1.42129 | 1418.1
293.15 K, x2 = 0.8461 | 921.84 | 1.42325 | 1430.7
293.15 K, x2 = 0.9017 | 931.277 | 1.42583 | 1446.8
293.15 K, x2 = 0.9496 | 939.704 | 1.42811 | 1460.9
298.15 K, x2 = 0 | 801.99 | 1.38793 | 1211.9
298.15 K, x2 = 0.0568 | 808.267 | 1.38979 | 1222.8
298.15 K, x2 = 0.1 | 813.221 | 1.39128 | 1231.3
298.15 K, x2 = 0.1526 | 819.25 | 1.3931 | 1241.7
298.15 K, x2 = 0.1895 | 823.621 | 1.39442 | 1249.2
298.15 K, x2 = 0.2545 | 831.549 | 1.3967 | 1262.9
298.15 K, x2 = 0.3298 | 841.051 | 1.39955 | 1279.3
298.15 K, x2 = 0.3502 | 843.666 | 1.40029 | 1283.9
298.15 K, x2 = 0.3956 | 849.557 | 1.40203 | 1294
298.15 K, x2 = 0.4567 | 857.796 | 1.40441 | 1308.5
298.15 K, x2 = 0.5084 | 865.012 | 1.4065 | 1320.8
298.15 K, x2 = 0.557 | 871.899 | 1.40855 | 1332.9
298.15 K, x2 = 0.6022 | 878.552 | 1.41039 | 1344.4
298.15 K, x2 = 0.6448 | 884.967 | 1.41217 | 1355.5
298.15 K, x2 = 0.7117 | 895.208 | 1.41498 | 1373.4
298.15 K, x2 = 0.7504 | 901.333 | – | 1384
298.15 K, x2 = 0.7511 | – | 1.41672 | –
298.15 K, x2 = 0.8027 | 909.784 | 1.41905 | 1398.7
298.15 K, x2 = 0.849 | 917.57 | 1.42117 | 1412.1
298.15 K, x2 = 0.9019 | 926.592 | 1.42364 | 1427.6
298.15 K, x2 = 0.9429 | 933.872 | 1.42557 | 1440.1
303.15 K, x2 = 0 | 796.73 | 1.38523 | 1191.7
303.15 K, x2 = 0.0581 | 803.204 | – | 1203
303.15 K, x2 = 0.0681 | – | 1.38748 | –
303.15 K, x2 = 0.1088 | 808.974 | – | 1212.9
303.15 K, x2 = 0.113 | – | 1.38906 | –
303.15 K, x2 = 0.1576 | – | 1.39062 | –
303.15 K, x2 = 0.16 | 815.007 | – | 1223.3
303.15 K, x2 = 0.1979 | – | 1.39212 | –
303.15 K, x2 = 0.2044 | 820.314 | – | 1232.5
303.15 K, x2 = 0.2343 | – | 1.39347 | –
303.15 K, x2 = 0.262 | 827.319 | – | 1244.6
303.15 K, x2 = 0.3046 | 832.689 | – | 1253.9
303.15 K, x2 = 0.3128 | – | 1.39635 | –
303.15 K, x2 = 0.3506 | 838.634 | – | 1264.1
303.15 K, x2 = 0.3603 | – | 1.3982 | –
303.15 K, x2 = 0.4014 | 845.319 | – | 1275.7
303.15 K, x2 = 0.4156 | – | 1.40034 | –
303.15 K, x2 = 0.4485 | – | 1.40167 | –
303.15 K, x2 = 0.482 | 856.31 | – | 1294.7
303.15 K, x2 = 0.4954 | – | 1.40355 | –
303.15 K, x2 = 0.5006 | 858.884 | – | 1299.1
303.15 K, x2 = 0.5407 | 864.591 | – | 1309
303.15 K, x2 = 0.5505 | – | 1.4058 | –
303.15 K, x2 = 0.5986 | – | 1.40783 | –
303.15 K, x2 = 0.5989 | 873.078 | – | 1323.9
303.15 K, x2 = 0.6407 | – | 1.40954 | –
303.15 K, x2 = 0.6467 | 880.175 | – | 1336.3
303.15 K, x2 = 0.6949 | 887.598 | – | 1349.2
303.15 K, x2 = 0.6952 | – | 1.41187 | –
303.15 K, x2 = 0.7401 | – | 1.41378 | –
303.15 K, x2 = 0.7518 | 896.616 | – | 1364.8
303.15 K, x2 = 0.7992 | – | 1.41643 | –
303.15 K, x2 = 0.8007 | 904.558 | – | 1378.6
303.15 K, x2 = 0.8527 | 913.274 | – | 1393.6
303.15 K, x2 = 0.8559 | – | 1.41908 | –
303.15 K, x2 = 0.8991 | 921.307 | – | 1407.5
303.15 K, x2 = 0.8994 | – | 1.42109 | –
303.15 K, x2 = 0.9411 | – | 1.42312 | –
303.15 K, x2 = 0.9485 | 929.946 | – | 1422.2
